{"source": "patent US11491127B2", "about": "“Therapeutic use of compounds” (UCL BUSINESS LTD, priority 2010, dated 2022)", "key": {"[1]": {"test_system": "phosphoinositide (PIP and PIP2) turnover in Dictyostelium AX2 cells", "assay": "Dictyostelium phospholipid labelling (PIP and PIP2 turnover)", "assay_type": "cell-based, Dictyostelium discoideum", "settings": "for activity at 500 µM: 0.1 h", "description": "Phospholipid labelling was quantified using a Typhoon phosphor-imager. Even loading was determined using total lipid stain with copper sulphate."}, "[2]": {"test_system": "release of 3H arachidonic acid / palmitic acid radiolabel from Dictyostelium cells", "assay": "Fatty acid release (3H radiolabel release from labelled cells)", "assay_type": "cell-based, Dictyostelium discoideum"}, "[3]": {"test_system": "self-sustaining status epilepticus in Sprague Dawley rats", "assay": "In vivo status epilepticus (perforant path stimulation)", "parameters": "species or system rat", "settings": "for effectiveness in status epilepticus model: previously found by the inventors", "description": "This method has been described in detail previously (Walker et al., 1999). In brief, male Sprague Dawley rats […] were anesthetized with 1-2% isoflurane in O2. An earth electrode was positioned subcutaneously, and a monopolar recording electrode was implanted stereotactically into the right hippocampus (coordinates, 2.5 mm lateral and 4 mm caudal from bregma). A bipolar stimulating electrode was implanted in the right hemisphere and advanced into the angular bundle (coordinates, 4.4 mm lateral and 8.1 mm caudal from bregma) to stimulate the perforant path. The depths of the electrodes were adjusted to maximize the slope of the dentate granule cell field potential (Guo et al., 1999). The electrodes were held in place with dental acrylic and skull screws. The animals were allowed to recover from anaesthesia. Seven days later, the perforant path was electrically stimulated with 4-5 mA 50 μsec monopolar pulses at 20 Hz for 2 hr; this induced self-sustaining status epilepticus. After 10 min of self-sustaining status epilepticus, compounds or vehicle were administered and the behavioural seizures and EEG were monitored for 3 hours. At this point diazepam (10 mg/kg) was administered to all animals to stop the status epilepticus. Groups were compared by ANOVA followed by post-hoc testing using Tukey test, using SPSS."}, "[4]": {"settings": "cited from earlier work"}, "[5]": {"test_system": "PTZ-induced epileptiform activity in entorhinal cortex-hippocampal slices", "assay": "In vitro PTZ acute seizure model, entorhinal cortex-hippocampus slices", "assay_type": "cell-based, rat", "settings": "PTZ 2 mM, [K+] 6 mM; compounds equimolar 1 mM; 30 to 40 minutes after application", "description": "The rats (p21) were decapitated after killing by intraperitoneal injection with an overdose of pentobarbitone (500 mg/kg). The brain was removed and placed in ice-cold sucrose solution in mM: NaCl 87, KCl 2.5, MgCl2 7, CaCl2 0.5, NaH2PO4 1.25, sucrose 75, glucose 25, equilibrated with 95% 02/5% CO2 (pH 7.4). Horizontal combined entorhinal cortex-hippocampus slices (350 μm) were prepared with a Leica vibratome (Leica V T1200S) and were then stored in an interface chamber that contained artificial cerebrospinal fluid solution (aCSF) containing in mM: NaCl 119, KCl 2.5, MgSO4 4, CaCl2 4, NaHCO326.2, NaH2PO4 1, glucose 11, and gassed with 95% O2/5% CO2. They were stored for over one hour before being transferred to a submersion recording chamber continually perfused with carbogenated aCSF for recording. Field potential recordings were made by placing glass microelectrodes (˜1-2 MΩ) filled with aCSF solution in stratum radiatum of CA1. Bipolar stimulating electrodes were positioned in the Schaffer collateral/commissural fibre pathway in stratum radiatum to confirm slice viability. In the PTZ acute seizure model, PTZ (2 mM) was added to the perfusate and [K+] was increased to 6 mM in order to induce epileptiform activity (Armand et al., 1998). In the low Mg^2+ acute seizure model, Mg^2+ free aCSF was applied to generate rhythmic short recurrent discharges. Novel anticonvulsants were applied once the frequency and amplitude of the epileptiform discharges were stable over a period of 10 min. Anticonvulsant effects were evaluated by measuring the variation of frequency of the discharges every minute. The data acquired from the 30 to 40 minutes after application novel anticonvulsants were compared by ANOVA followed by post-hoc testing using Tukey test, using SPSS statistical analysis."}, "[6]": {"test_system": "inositol levels in Dictyostelium cells", "assay": "Inositol levels in treated Dictyostelium cells", "assay_type": "cell-based, Dictyostelium discoideum", "settings": "time period causing phosphoinositide attenuation (9 min)", "description": "Following a 6 min incubation, labelling solution was removed and cells were lysed in acidified methanol and phospholipids were separated as previously detailed (Williams et al., 1999). Phospholipid labelling was quantified using a Typhoon phosphor-imager. Even loading was determined using total lipid stain with copper sulphate. Inositol levels were measured from five hour developed cells (similar to phospholipid labelling), following lyophilisation, as previously described (Maslanski & Busa, 1990)."}, "[7]": {"test_system": "uptake of 3H arachidonic acid / palmitic acid into Dictyostelium cells", "assay": "Fatty acid uptake (3H radiolabel incorporation into cells)", "assay_type": "cell-based, Dictyostelium discoideum", "settings": "for EC50: Dictyostelium"}, "[8]": {"test_system": "inositol trisphosphate (InsP3) levels in Dictyostelium", "settings": "Williams et al., 1999; cited from earlier work"}, "[9]": {"test_system": "lipid droplets in Dictyostelium cells", "assay": "Bodipy fatty acid lipid droplet accumulation", "assay_type": "cell-based, Dictyostelium discoideum", "settings": "0.5 mM VPA; bodipy-labelled lipid"}, "[10]": {"settings": "Table 2; cited from earlier work"}, "[11]": {"settings": "0.5 mM VPA, 6 min treatment (printed 6 mM)"}, "[12]": {"settings": "5×PI3K knockout mutant, 0.5 mM VPA, 9 min"}, "[13]": {"settings": "PIPKinA knockout mutant, 0.5 mM VPA, 9 min"}, "[14]": {"settings": "cells lacking phospholipase C gene, 0.5 mM VPA, 9 min"}, "[15]": {"settings": "prolyl oligopeptidase (PO) ablated cells, 0.5 mM VPA, 9 min"}, "[16]": {"settings": "rPKA knockout mutant, 0.5 mM VPA, 9 min"}}, "note": "Where two headings read alike, the source gives them in different places."}
{"smiles": "CCCC(CCC)C(=O)O", "note": "[VPA, 2-propylpentanoic acid, reference compound]", "values": [{"measurement": "reduction in radio-labelled PIP2 turnover", "setting": "[1]; [11]", "value": 49, "unit": "%"}, {"measurement": "reduction in radio-labelled PIP turnover", "setting": "[1]; [11]", "value": 49, "unit": "%"}, {"measurement": "reduction of PIP2 turnover", "setting": "[1]; 0.5 mM VPA, 9 min treatment", "value": 79, "unit": "%"}, {"measurement": "reduction of PIP turnover", "setting": "[1]; 0.5 mM VPA, 9 min treatment", "value": 68, "unit": "%"}, {"measurement": "reduction in PIP2 turnover", "setting": "[1]; 0.5 mM VPA, 60 min treatment", "value": 94, "unit": "%"}, {"measurement": "reduction in PIP turnover", "setting": "[1]; 0.5 mM VPA, 60 min treatment", "value": 94, "unit": "%"}, {"measurement": "reduction of PIP2 production compared to untreated cells", "setting": "[1]; [12]", "value": 70, "unit": "%"}, {"measurement": "reduction of PIP production compared to untreated cells", "setting": "[1]; [12]", "value": 48, "unit": "%"}, {"measurement": "activity at 500 µM", "setting": "[1]; Dictyostelium, read-out: PIP Level (% control), Table 1, 0.5 mM compound, 3 min pre-treatment + 6 min labelling, wild type Dictyostelium", "value": 32, "unit": "%"}, {"measurement": "activity at 500 µM", "setting": "[1]; Dictyostelium, read-out: PIP level % control, Table 2, VPA and straight chain acids in Dictyostelium", "value": 32, "unit": "%"}, {"measurement": "EC50", "setting": "[1]; Dictyostelium, 0.15 h, read-out: EC50 of inhibition of phosphoinositide turnover", "value": 154, "unit": "µM"}, {"measurement": "inhibition at 250 µM", "setting": "[1]; Dictyostelium, 0.15 h, read-out: inhibition of PIP2 turnover", "value": 42, "unit": "%"}, {"measurement": "inhibition at 250 µM", "setting": "[1]; Dictyostelium, 0.15 h, read-out: inhibition of PIP turnover", "value": 25, "unit": "%"}, {"measurement": "reduction in PIP2 synthesis compared to untreated cells", "setting": "[1]; [13]", "value": 68, "unit": "%"}, {"measurement": "reduction in PIP synthesis compared to untreated cells", "setting": "[1]; [13]", "value": 54, "unit": "%"}, {"measurement": "reduction in PIP2 signalling", "setting": "[1]; [14]", "value": 75, "unit": "%"}, {"measurement": "reduction in PIP signalling", "setting": "[1]; [14]", "value": 73, "unit": "%"}, {"measurement": "reduction in PIP2 signalling", "setting": "[1]; [15]", "value": 68, "unit": "%"}, {"measurement": "reduction in PIP signalling", "setting": "[1]; [15]", "value": 66, "unit": "%"}, {"measurement": "additional reduction of PIP2 production compared to untreated cells", "setting": "[1]; [16]", "value": 33, "unit": "%"}, {"measurement": "additional reduction of PIP production compared to untreated cells", "setting": "[1]; [16]", "value": 72, "unit": "%"}, {"measurement": "activity at 500 µM", "setting": "[2]; Dictyostelium, 0.5 h, Table 3, 3H-AA labelled cells, 30 min, 0.5 mM treatment, read-out: AA release [% of control]", "value": 50, "unit": "%"}, {"measurement": "IC50", "setting": "[2]; Dictyostelium, 3H arachidonic acid labelled cells, read-out: IC50 of decrease in radiolabel release", "value": 89, "unit": "µM"}, {"measurement": "IC50", "setting": "[2]; Dictyostelium, 3H palmitic acid labelled cells, read-out: IC50 of inhibition of tritiated palmitic acid release", "value": 163, "unit": "µM"}, {"measurement": "radiolabel release activity relative to control", "setting": "[2]; Table 3, 30 min, 0.5 mM", "value": "50 % of control"}, {"measurement": "seizure control in words", "setting": "[3]; 400 mg/kg, 3 hour test period", "value": "strongly attenuated seizures"}, {"measurement": "animals in which seizures completely stopped", "setting": "[3]; 400 mg/kg, after 2 hours, 7 animals per group", "value": "did not terminate the seizures in any"}, {"measurement": "spike amplitude", "setting": "[3]; 400 mg/kg, first hour", "value": "75.2±9.2", "unit": "%"}, {"measurement": "spike amplitude", "setting": "[3]; 400 mg/kg, second hour", "value": "61.1±8.3", "unit": "%"}, {"measurement": "spike amplitude", "setting": "[3]; 400 mg/kg, third hour", "value": "55.1±6.6", "unit": "%"}, {"measurement": "effectiveness in status epilepticus model", "setting": "[3]; high dose 600 mg/kg", "value": "effective"}, {"measurement": "effectiveness in status epilepticus model", "setting": "[3]; lower dose 400 mg/kg", "value": "partial effectiveness"}, {"measurement": "concentration in plasma in therapeutic use", "setting": "[4]; DSM IV, 2000", "value": "400 to 700", "unit": "µM"}, {"measurement": "concentration in plasma of patients receiving treatment", "setting": "[4]; Silva et al., 2008", "value": "280 to 700", "unit": "µM"}, {"measurement": "frequency of epileptiform discharges (seizure discharge frequency)", "setting": "[5]", "value": "75.1±1.7", "unit": "%"}, {"measurement": "reduction in inositol levels", "setting": "[6]", "value": "no significant reduction"}, {"measurement": "EC50", "setting": "[7]; 3H arachidonic acid, read-out: EC50 of increase in uptake of AA", "value": 47, "unit": "µM"}, {"measurement": "EC50", "setting": "[7]; 3H palmitic acid, read-out: EC50 of increase in uptake of palmitic acid", "value": 160, "unit": "µM"}, {"measurement": "fatty acid uptake in cell lines lacking fcsA", "setting": "[7]; fcsA -/- cells, 0.5 mM VPA", "value": "increase"}, {"measurement": "treatment time required for depletion of inositol trisphosphate", "setting": "[8]", "value": 6, "unit": "h"}, {"measurement": "intensity and diameter of fluorescent lipid droplets compared to untreated cells", "setting": "[9]", "value": "increase"}, {"measurement": "pKa", "setting": "[10]", "value": 4.6}]}
